{"source": "patent US20160067211A1", "about": "“PHARMACEUTICAL COMPOSITION” (Eberhard Karls Universitaet Tuebingen Medizinische Fakultaet, priority 2013, published 2016)", "key": {"SK-MEL-28 melanoma cells": {"tested_on": "SK-MEL-28 melanoma cells", "experiment": "Apoptosis antibody array (35 proteins)", "assay_type": "cell-based, human", "conditions": "SK-MEL-28, 100 μM, 4 hours", "method": "Apoptosis assay (35 proteins) performed on lysates of SK-MEL-28 melanoma cells 4 hours after treatment with 100 μM of 6-PN or 8-PN. Protein expression levels were estimated performing a densitometric analysis. Neither 6-PN nor 8-PN yielded a significant change of expression of the analyzed proteins involved in apoptosis.\nTesting of apoptosis induction was performed with the human Proteom-Profiler-Apoptosis-Antibody-Array-Kit (R & D Systems, Wiesbaden, Germany) as described by the manufacturer after treatment of SK-MEL-28 melanoma cells with 100 μM 6-PN or 100 μM 8-PN for 4 hours.\nTo further analyze the possibility of apoptosis induction, an extensive apoptosis assay was performed on SK-MEL-28 melanoma cells 4 hours after treatment with 100 μM 6-PN or 8-PN (FIG. 9). […] This was verified by FACS cell cycle analyses to screen for a possible increase of the sub-G1 fraction of cells (apoptotic cells) or for the induction of a G2 arrest (inhibition of proliferation). […] To further differentiate between the induction of apoptosis and/or necrosis an PI/Annexin V staining of SK-MEL-28 and BLM cells was performed 4 hours and 24 hours after the treatment with 6-PN or 8-PN; 10 μM staurosporin (6 hours treatment) was used as positive control for the induction of apoptosis; DMSO treatment was used as vehicle control. The cells were then analyzed by FACS."}, "[1]": {"tested_on": "LC3 in SK-MEL-28 melanoma cells", "experiment": "Western blot LC3 (autophagy), SK-MEL-28", "assay_type": "cell-based, human", "conditions": "SK-MEL-28, 100 μM, after 12-24 hours", "method": "(A) Cell cycle FACS analyses of PI stained BLM and SK-MEL-28 melanoma cells. 100 μM of 8-PN-induced a G2 arrest in both cells. (B) FACS analyses of BLM and SK-MEL-28 melanoma cells treated with 100 μM 6-PN or 8-PN and stained for annexin V/PI; staurosporin was used as control for apoptosis induction and DMSO as vehicle control. […] (C) BLM and SK-MEL-28 melanoma cells were treated with 100 μM of PNs; TSA, SAHA and EMSO were used as controls.\nThe following antibodies were used: Anti-Vinculin and Anti-Actin (1:5000, Sigma-Aldrich), Anti-Acetyl-Histon H3 (1:5000, Millipore, Billerica, USA), Anti-Caspase-3 (1:1000), Anti-AKT, Anti-pAKT, Anti-ERK, Anti-pERK, […], Anti-p70S6 Kinase, and Anti-pS6 protein (1:1000), all from Cell Signaling, Frankfurt, Germany), Anti-LC3 (1:5000, Sigma-Aldrich).\nSince it has been speculated that the formation of intracytoplasmic vacuoles in pancreatic or breast cancer cells by 6-PN and 8-PN observed in pervious studies might represent an induction of autophagy, this issue was further investigated on a molecular level. BLM and SK-MEL-28 melanoma cells were treated with 100 μM of 6-PN, 8-PN, SAHA or TSA (and with DMSO as control), and the treated cells were lysed for protein extraction after 1 hour, 2 hours, 4 hours, 12 hours and 24 hours. […]"}, "[2]": {"tested_on": "human HDAC enzymes HDAC1-HDAC11", "experiment": "HDAC inhibition profiling (Fluor de Lys)", "assay_type": "biochemical", "conditions": "100 μM, HDAC1-HDAC11, 1% DMSO", "method": "FIG. 2: In silico docking analysis with 6-PN and 8-PN illustrates the inhibitory potential on human-derived HDACs of class I and II. (A) Results of the in silico docking analysis of 6-PN and 8-PN with crystal structures of HDAC2 (class I) and HDAC4 (class II). […] Both molecules are predicted to interact with the zinc ion as well as other residues of the catalytic center. Docking analyses of 6-PN and 8-PN in the individual HDAC binding pockets were performed using GOLD (version 4.1.2) and MOE (version 2009.10). (B) Overall HDAC inhibition in cellular extracts of the human cell line HeLa by increasing concentrations of 6-PN and 8-PN (5 μM, 10 μM, 20 μM, 50 μM and 100 μM). As reference inhibitor 100 μM SAHA was used. Every concentration was tested three times in triplicates. Shown are the mean±SD. (C) Specific fluometric profiling assay using recombinant human HDACs of classes I, II and IV. Specific inhibition values were generated for the treatment with 100 μM 6-PN and 8-PN. […]\nThe human HDAC profiling assay was performed on the basis of the Fluor de Lys™ technology by Scottish Biomedical, Glasgow, United Kingdom. The percentage inhibition values of 100 μM of 6-PN and 100 μM of 8-PN against the human HDAC enzymes HDAC1, HDAC2, HDAC3, HDAC4, HDAC5, HDAC6, HDAC7, HDAC8, HDAC9, HDAC10, and HDAC11 were determined. […]"}, "[3]": {"tested_on": "angiogenesis induced by basic fibroblast growth factor and vascular endothelial growth factor", "conditions": "induced by bFGF and VEGF, three-dimensional collagen gel in vitro; cited from earlier work"}}, "data": [{"smiles": "CC(C)=CCc1c(O)cc(O)c2c1OC(c1ccc(O)cc1)CC2=O", "note": "(stereo not shown) [8-PN, 5,7-Dihydroxy-2-(4-hydroxy-phenyl)-8-(3-methyl-but-2-enyl)-chroman-4-one]", "values": [{"measurement": "apoptosis induction (expression of 35 apoptosis proteins, densitometric)", "setting": "SK-MEL-28 melanoma cells", "value": "not apoptosis related"}, {"measurement": "shift from LC3-I to LC3-II (autophagy)", "setting": "[1]", "value": "clearly induced the shift"}, {"measurement": "inhibition of HDAC activity on all tested human HDACs", "setting": "[2]", "value": "strongly inhibited"}, {"measurement": "angiogenesis", "setting": "[3]", "value": "inhibits the angiogenesis"}]}]}
